# Measured values: PMC9311154 (British Journal of Clinical Pharmacology, 2022)
# Legend:
# CYP3A4 = CYP3A4 (Homo sapiens, UniProt P08684); test: Midazolam interaction study; format: in vivo; details: for AUC ratio day 1/day−1, point estimate geometric LS means (geometric 90% CI) / AUC ratio day 10/day−1, point estimate geometric LS means (geometric 90% CI): ANOVA
# Safety and tolerability = format: in vivo, human; details: midazolam alone
# [1] = BAY 2433334 25 mg OD + Midazolam
# [2] = BAY 2433334 75 mg OD + Midazolam
# [3] = day 1, coadministration of BAY 2433334 25 mg
# [4] = day 1, coadministration of BAY 2433334 75 mg
# [5] = day 10, BAY 2433334 25 mg once daily
# [6] = BAY 2433334 25 mg treatment sequence
# [7] = BAY 2433334 75 mg treatment sequence
# Sequence of CYP3A4 (P08684 whole entry): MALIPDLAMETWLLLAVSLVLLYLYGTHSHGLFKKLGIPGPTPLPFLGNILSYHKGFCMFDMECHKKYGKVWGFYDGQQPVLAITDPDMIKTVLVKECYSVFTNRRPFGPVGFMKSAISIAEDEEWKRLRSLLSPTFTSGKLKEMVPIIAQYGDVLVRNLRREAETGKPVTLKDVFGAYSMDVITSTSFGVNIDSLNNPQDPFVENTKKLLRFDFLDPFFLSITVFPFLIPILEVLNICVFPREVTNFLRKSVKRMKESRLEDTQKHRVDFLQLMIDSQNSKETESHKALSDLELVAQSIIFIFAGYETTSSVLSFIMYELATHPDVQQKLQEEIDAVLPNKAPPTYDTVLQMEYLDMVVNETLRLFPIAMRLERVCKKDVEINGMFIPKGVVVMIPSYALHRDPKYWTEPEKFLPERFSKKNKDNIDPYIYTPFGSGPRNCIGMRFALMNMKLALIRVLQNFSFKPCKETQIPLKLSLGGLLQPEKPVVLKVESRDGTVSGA
smiles,measurement,setting,value
"Cc1ncc2n1-c1ccc(Cl)cc1C(c1ccccc1F)=NC2 [Midazolam, midazolam]","AUC ratio day 1/day−1, point estimate geometric LS means (geometric 90% CI)",CYP3A4; [1],1.0415 (0.9659–1.1230)
same,"AUC ratio day 10/day−1, point estimate geometric LS means (geometric 90% CI)",CYP3A4; [1],1.0630 (0.9859–1.1461)
same,"AUC ratio day 1/day−1, point estimate geometric LS means (geometric 90% CI)",CYP3A4; [2],1.0451 (0.9785–1.1164)
same,"AUC ratio day 10/day−1, point estimate geometric LS means (geometric 90% CI)",CYP3A4; [2],1.1736 (1.0963–1.2564)
same,"AUC ratio day 10/day−1, point estimate geometric LS means (geometric 90% CI)","CYP3A4; BAY 2433334 75 mg OD + Midazolam, listed as midazolam",1.1736 [1.0963–1.2564]
same,increase in the AUC,CYP3A4; [3],4.2%
same,increase in the AUC,CYP3A4; [4],4.5%
same,increase in the AUC,CYP3A4; [5],6.3%
same,increase in the AUC,"CYP3A4; day 10, pre‐ and coadministration of BAY 2433334 75 mg",17%
same,half-life,"CYP3A4; human, plasma, oral, 7.5 mg, t1/2, Day −1, midazolam 7.5 mg alone, BAY 2433334 75 mg OD group, median (range), geometric mean not calculated",287 min
same,tmax,"CYP3A4; human, plasma, oral, 7.5 mg, tmax, Day −1, midazolam 7.5 mg alone, BAY 2433334 25 mg OD group, median (range)",35 min
same,tmax,"CYP3A4; human, plasma, oral, 7.5 mg, tmax, Day −1, midazolam 7.5 mg alone, BAY 2433334 75 mg OD group, median (range)",45 min
same,tmax,"CYP3A4; human, plasma, oral, tmax, Day 1, midazolam 7.5 mg with BAY 2433334 25 mg OD, median (range)",44.5 min
same,tmax,"CYP3A4; human, plasma, oral, tmax, Day 1, midazolam 7.5 mg with BAY 2433334 75 mg OD, median (range)",45 min
same,tmax,"CYP3A4; human, plasma, oral, tmax, Day 10, midazolam 7.5 mg with BAY 2433334 25 mg OD, median (range)",45 min
same,tmax,"CYP3A4; human, plasma, oral, tmax, Day 10, midazolam 7.5 mg with BAY 2433334 75 mg OD, median (range)",45 min
same,Adverse event(s) of special interest,Safety and tolerability; [6],0 Number (%)
same,Study drug‐related adverse event(s),Safety and tolerability; [6],0 Number (%)
same,Study procedure‐related adverse event(s),Safety and tolerability; [6],3 (12.5%) Number (%)
same,Adverse event(s) of special interest,Safety and tolerability; [7],0 Number (%)
same,Study drug‐related adverse event(s),Safety and tolerability; [7],0 Number (%)
same,Study procedure‐related adverse event(s),Safety and tolerability; [7],1 (4.2%) Number (%)
"OCc1ncc2n1-c1ccc(Cl)cc1C(c1ccccc1F)=NC2 [α‐Hydroxymidazolam, α‐hydroxymidazolam]","AUC ratio day 1/day−1, point estimate geometric LS means (geometric 90% CI)",CYP3A4; [1],1.0650 (0.9661–1.1741)
same,"AUC ratio day 10/day−1, point estimate geometric LS means (geometric 90% CI)",CYP3A4; [1],1.0560 (0.9595–1.1622)
same,"AUC ratio day 1/day−1, point estimate geometric LS means (geometric 90% CI)",CYP3A4; [2],0.9856 (0.9206–1.0551)
same,"AUC ratio day 10/day−1, point estimate geometric LS means (geometric 90% CI)",CYP3A4; [2],0.9864 (0.9169–1.0612)
same,"AUC ratio day 10/day−1, point estimate geometric LS means (geometric 90% CI)","CYP3A4; BAY 2433334 75 mg OD + Midazolam, listed as α‐hydroxymidazolam",0.9864 [0.9169–1.0612]
same,tmax,"CYP3A4; Day 1, midazolam 7.5 mg with BAY 2433334 25 mg OD, median (range)",0.742 (0.500–4.00) h
same,tmax,"CYP3A4; Day 1, midazolam 7.5 mg with BAY 2433334 75 mg OD, median (range)",0.750 (0.483–4.00) h
same,tmax,"CYP3A4; Day 10, midazolam 7.5 mg with BAY 2433334 25 mg OD, median (range)",0.750 (0.483–4.00) h
same,tmax,"CYP3A4; Day 10, midazolam 7.5 mg with BAY 2433334 75 mg OD, median (range)",0.750 (0.483–2.00) h
same,tmax,"CYP3A4; Day −1, midazolam 7.5 mg alone, BAY 2433334 25 mg OD group, median (range)",0.708 (0.483–4.00) h
same,tmax,"CYP3A4; Day −1, midazolam 7.5 mg alone, BAY 2433334 75 mg OD group, median (range)",0.750 (0.500–3.00) h
same,increase in the AUC,CYP3A4; [3],4.4%
same,decrease in the AUC,CYP3A4; [4],1.5%
same,increase in the AUC,CYP3A4; [5],6.0%
same,"time to maximum plasma concentrations, range across treatments",CYP3A4; with and without BAY 2433334,0.583 to 0.750 h
